# Reference: US20230355597A1, “COMPOUNDS, COMPOSITIONS, AND METHODS FOR THE TREATMENT AND PREVENTION OF AVIAN PATHOGENIC E. COLI (APEC)” (OHIO STATE INNOVATION FOUNDATION, priority 2018, published 2023)
# Marks after values point to notes of the source that are not given here.
# Legend:
# AI-2 activity of APEC O8 = test: AI-2 bioluminescence indicator assay (V. harveyi BB170); settings: APEC O8, 100 µM
# [1] = tested on: QS and virulence associated genes of APEC O78; test: qRT-PCR of QS-regulated and virulence factors genes; type: cell-based, avian pathogenic Escherichia coli (APEC); settings: 100 µM, 10 h
# Procedure: Quantitative real-time reverse transcription PCR (qRT-PCR). […] APEC O78 was grown in the presence of 100 µM of each compound in a 96-well plate at 37° C. for 10 h. APEC O78 culture treated with 1 µL of 100% DMSO was used as […]. Total RNA was extracted from duplicate wells for each compound (200 µL) using a miRNeasy Mini Kit (Qiagen). RNA quality and quantity was determined by nanodrop 2000 C spectrophotometer (Thermo scientific). Traces of DNA was removed using Genomic DNA removal mix (Qiagen). Approximately, 5 µg of purified RNA was used to synthesize cDNA using the Qiagen RT^2 First Strand Kit (Qiagen). The qRT-PCR was performed using SensiMix™ SYBER® Hi-Rox qPCR Master Mix (Bioline) according to manufacturer instructions in a realplex^2 mastercycler (Eppendorf) with 55° C. annealing temperature. Gene-specific primers were designed using PrimerQuest Tool and obtained from integrated DNA technologies (IDT). The data were normalized to the house-keeping gene, glyceraldehyde-3-phosphate dehydrogenase (GAPDH). The relative fold change was calculated using the ΔΔCt method. Three independent experiments were conducted.
# AI-2 activity of APEC O2 = test: AI-2 bioluminescence indicator assay (V. harveyi BB170); settings: APEC O2, 100 µM
# [2] = tested on: AI-2 activity of APEC O35; test: as above; settings: APEC O35, 100 µM
# AI-2 activity of APEC O1 = test: as above; settings: APEC O1, 100 µM
# [3] = tested on: AI-2 activity of APEC O15; test: as above; settings: APEC O15, 100 µM
# [4] = tested on: AI-2 activity of APEC O115; test: as above; settings: APEC O115, 100 µM
# [5] = tested on: AI-2 activity of APEC O18; test: as above; settings: APEC O18, 100 µM
# APEC O1 in HD-11 cells = test: Intracellular survival assay (AI-2 inhibitors); settings: O1, HD-11, 100 µM, 6 h
# [6] = tested on: AI-2 activity of APEC O78; test: AI-2 bioluminescence indicator assay (V. harveyi BB170); settings: APEC O78, 100 µM
# [7] = tested on: AI-2 activity of APEC O109; test: as above; settings: APEC O109, 100 µM
# [8] = tested on: intracellular APEC O2 in Caco-2 cells; test: Intracellular survival assay (cidal SMs); settings: O2, Caco-2, 6 h treatment; superscript = multiple of MIC
# [9] = tested on: intracellular APEC O1 in HD11 cells; test: Intracellular survival assay (cidal SMs); settings: O1, HD11, 6 h treatment; superscript = multiple of MIC
# APEC O115 = type: cell-based, avian pathogenic Escherichia coli (APEC); settings: APEC O115, M63 media; MIC/MBC
# APEC O78 [10] = test: Loss of 260/280 nm absorbing materials assay; type: cell-based, avian pathogenic Escherichia coli (APEC); settings: 2X MBC, 1 h, *P<0.05 vs DMSO
# APEC O35 = type: cell-based, avian pathogenic Escherichia coli (APEC); settings: APEC O35, M63 media; MIC/MBC
# APEC O1-63 = type: cell-based, avian pathogenic Escherichia coli (APEC); settings: APEC O1-63, M63 media; MIC/MBC
# APEC O1 = type: cell-based, avian pathogenic Escherichia coli (APEC); settings: APEC O1, M63 media; MIC/MBC
# APEC O2 = type: cell-based, avian pathogenic Escherichia coli (APEC); settings: APEC O2, M63 media; MIC/MBC
# [11] = tested on: intracellular APEC O78 in THP-1 cells; test: Intracellular survival assay (cidal SMs); settings: O78, THP-1, 6 h treatment; superscript = multiple of MIC
# APEC O78 [12] = type: cell-based, avian pathogenic Escherichia coli (APEC); settings: APEC O78, M63 media; cell prints MIC/MBC
# APEC O109 = type: cell-based, avian pathogenic Escherichia coli (APEC); settings: APEC O109, M63 media; MIC/MBC
# [13] = tested on: intracellular APEC O78 in HD11 cells; test: Intracellular survival assay (cidal SMs); settings: O78, HD11, 6 h treatment; superscript = multiple of MIC
# APEC O18 = type: cell-based, avian pathogenic Escherichia coli (APEC); settings: APEC O18, M63 media; MIC/MBC
# APEC O15 = type: cell-based, avian pathogenic Escherichia coli (APEC); settings: APEC O15, M63 media; MIC/MBC
# APEC O78 [14] = test: Confocal microscopy bacterial cytological profiling; type: cell-based, avian pathogenic Escherichia coli (APEC); settings: 2X MBC
# Procedure: Confocal and scanning electron microscopy. Confocal microscopy was used for bacterial cytological profiling (BCP) to identify the cellular pathways targeted by SMs as described previously. […] After incubation, treated cultures were centrifuged, washed, and resuspended in 100 μL PBS. […] Cultures were then centrifuged, washed, and resuspended in PBS to 1⁄10th volume of the original cultures.
# [15] = tested on: intracellular APEC O2 in HD11 cells; test: Intracellular survival assay (cidal SMs); settings: O2, HD11, 6 h treatment; superscript = multiple of MIC
# APEC O2-211 = type: cell-based, avian pathogenic Escherichia coli (APEC); settings: APEC O2-211, M63 media; MIC/MBC
# Rif^r APEC O78 = test: In vivo efficacy of growth inhibitors in APEC infected broiler chickens
# APEC O78-53 = type: cell-based, avian pathogenic Escherichia coli (APEC); settings: APEC O78-53, M63 media; MIC/MBC
# [16] = tested on: intracellular APEC O2 in THP-1 cells; test: Intracellular survival assay (cidal SMs); settings: O2, THP-1, 6 h treatment; superscript = multiple of MIC
# [17] = tested on: intracellular APEC O1 in Caco-2 cells; test: Intracellular survival assay (cidal SMs); settings: O1, Caco-2, 6 h treatment; superscript = multiple of MIC
# APEC O8 = type: cell-based, avian pathogenic Escherichia coli (APEC); settings: APEC O8, M63 media; MIC/MBC
# [18] = tested on: intracellular APEC O78 in Caco-2 cells; test: Intracellular survival assay (cidal SMs); settings: O78, Caco-2, 6 h treatment; superscript = multiple of MIC
# [19] = tested on: biofilm embedded APEC O78; test: MBEC High-throughput assay; type: cell-based, avian pathogenic Escherichia coli (APEC); settings: biofilm embedded APEC O78; superscript = multiple of MIC (footnote)
# [20] = tested on: intracellular APEC O1 in THP-1 cells; test: Intracellular survival assay (cidal SMs); settings: O1, THP-1, 6 h treatment; superscript = multiple of MIC
# [21] = Pilot experiment in chickens; type: in vivo, chicken
smiles,measurement,setting,value
"NC(=O)c1ccccc1Nc1cccc(C(F)(F)F)c1 [C3, 2-[[3-(trifuoromethyl)phenyl]amino]benzamide]",Inhibition % of AI-2 activity,AI-2 activity of APEC O8,39%
same,expression of fpr,[1],down-regulated
same,Inhibition % of AI-2 activity,AI-2 activity of APEC O2,54%
same,Inhibition % of AI-2 activity,[2],37%
same,Inhibition % of AI-2 activity,AI-2 activity of APEC O1,65%
same,Inhibition % of AI-2 activity,[3],0%
same,Inhibition % of AI-2 activity,[4],35%
same,Inhibition % of AI-2 activity,[5],8%
same,clearance of intracellular APEC,APEC O1 in HD-11 cells,100%
same,reduction of intracellular survival,APEC O1 in HD-11 cells; vs DMSO,4 logs
same,Inhibition % of AI-2 activity,[6],78%
same,Inhibition % of AI-2 activity,[7],0%
CCCCCCCCCCCCCCCC[n+]1ccn(CC#N)c1 [SM6],SMs intracellular APEC clearance concentration,[8],100^d µM
same,SMs intracellular APEC clearance concentration,[9],100^d µM
same,MBC,APEC O115,25 µM
same,MIC,APEC O115,12.5 µM
same,Absorbance 260,APEC O78 [10]; 260 nm absorbing material in supernatant,3.99*
same,Absorbance 280,APEC O78 [10]; 280 nm absorbing material in supernatant,2.69*
same,MBC,APEC O35,25 µM
same,MIC,APEC O35,12.5 µM
same,MBC,APEC O1-63,25 µM
same,MIC,APEC O1-63,12.5 µM
same,MBC,APEC O1,25 µM
same,MIC,APEC O1,12.5 µM
same,MBC,APEC O2,25 µM
same,MIC,APEC O2,25 µM
same,SMs intracellular APEC clearance concentration,[11],50^c µM
same,MBC,APEC O78 [12],25 µM
same,MIC,APEC O78 [12],12.5 µM
same,MBC,APEC O109,12.5 µM
same,MIC,APEC O109,12.5 µM
same,SMs intracellular APEC clearance concentration,[13],50^c µM
same,MBC,APEC O18,25 µM
same,MIC,APEC O18,12.5 µM
same,MBC,APEC O15,25 µM
same,MIC,APEC O15,12.5 µM
same,"cytological profile (confocal, FM4-64 / SYTO-9)",APEC O78 [14],membrane disruptors
same,SMs intracellular APEC clearance concentration,[15],50^c µM
same,MBC,APEC O2-211,12.5 µM
same,MIC,APEC O2-211,12.5 µM
same,reduction of average APEC load in internal organs,"Rif^r APEC O78; average of liver, heart, lung and kidney, vs untreated control",1.4 logs
same,cumulative lesions score,"Rif^r APEC O78; liver, heart, lung and air-sacs, untreated 6.2",5.4
same,reduction of APEC induced mortality,"Rif^r APEC O78; oral gavage twice a day, 5 days, untreated mortality (58.34%) normalized to 100%",42.86%
same,"reduction of APEC lesions severity (%), Air-sacs (airsacculitis)",Rif^r APEC O78; untreated control = 100%,-41.2%
same,"reduction of APEC lesions severity (%), Heart (pericarditis)",Rif^r APEC O78; untreated control = 100%,20%
same,"reduction of APEC lesions severity (%), Lung (lung congestion)",Rif^r APEC O78; untreated control = 100%,33.3%
same,"reduction of APEC load, Heart",Rif^r APEC O78; vs untreated control,1.3 log CFU/g of tissues
same,"reduction of APEC load, Kidney",Rif^r APEC O78; vs untreated control,1.9 log CFU/g of tissues
same,"reduction of APEC load, Liver",Rif^r APEC O78; vs untreated control,1.2 log CFU/g of tissues
same,"reduction of APEC load, Lung",Rif^r APEC O78; vs untreated control,1.2 log CFU/g of tissues
same,Body weight gain (BWG),Rif^r APEC O78; weight of live chickens before necropsy minus weight before treatment,222.18±54.01
same,MBC,APEC O78-53,25 µM
same,MIC,APEC O78-53,12.5 µM
same,SMs intracellular APEC clearance concentration,[16],50^c µM
same,SMs intracellular APEC clearance concentration,[17],100^d µM
same,MBC,APEC O8,12.5 µM
same,MIC,APEC O8,12.5 µM
same,SMs intracellular APEC clearance concentration,[18],50^c µM
same,MBEC,[19],12.5^a µM
same,SMs intracellular APEC clearance concentration,[20],100^d µM
same,impact on chicken health and performance,[21],no negative impact
